Assay results taken from US7351690B2, “Knockout identification of target-specific sites in peptides” (priority 2000, dated 2008).
Square brackets hold non-standard residues; d marks the D form. Primed or numbered codes have the meaning given here. Ends that are not written are not given here. Nle = CCCC[C@H](N)C(=O)O; dH′ = not defined here

Test system: bombesin receptor
Test: competitive binding assay, 125I-Bombesin, rat brain membranes
Details: not given
Description: Rat brain membranes were utilized as the source of bombesin receptor. The competitive binding assay was performed using a procedure as described by Moody T W, Perk C B, Rivier J, Brown, M R. (Proc Natl Acad Sci USA. 75:5372-5376, […]) and adapted to a 96 well format. An aliquot of membranes taken in assay buffer (50 mM Tris and HCl, pH 7.4 containing 1 mg/mL BSA and 2 μg/mL bacitracin) was incubated with 0.01 nM of ^125I-Bombesin with or without varying concentrations of the test compound for 60 min at 4° C. The incubation was terminated by rapid filtration of the assay mixture, followed by washing the filters with ice-cold buffer. The filters were dried and counted in a gamma counter for retained radioactivity. Non-specific binding was measured by including 1 μM Bombesin in the assay tube. The assay was performed in triplicate and results calculated to determine percentage inhibition of the ^125I-Bombesin binding to its receptors by a test compound. The parent polypeptide is shown in Table 6, with metallopeptides having Cys inserted as shown.

Substance | binding to bombesin receptor, in words
D-Phe-Gln-Cys-Ala-Val-Gly-His-Leu-Leu-NH2 ([dF]QCAVGHLL-NH2; also: oxorhenium(V) N3S1 tetradentate complex via Cys) [9-7] | least activity
D-Phe-Gln-Trp-Ala-Cys-Gly-His-Leu-Leu-NH2 ([dF]QWACGHLL-NH2; also: oxorhenium(V) N3S1 tetradentate complex via Cys) [9-5] | least activity
D-Phe-Gln-Trp-Ala-Cys-Val-Gly-His-Leu-Leu-NH2 ([dF]QWACVGHLL-NH2; also: oxorhenium(V) N3S1 chelate via Cys (Re(V)=O)) [8-6] | least activity
D-Phe-Gln-Trp-Ala-Val-Cys-NH2 ([dF]QWAVC-NH2; also: oxorhenium(V) N3S1 chelate via Cys (Re(V)=O)) [11-3] | high negative percent inhibition
D-Phe-Gln-Trp-Cys-Ala-Val-Gly-His-Leu-Leu-NH2 ([dF]QWCAVGHLL-NH2; also: rhenium complex (oxorhenium(V) N3S1 chelate via Cys)) [8-7] | least activity
Gln-Trp-Ala-Val-Cys-NH2 (QWAVC-NH2; not fully specified (bridges); printed as Gln-Trp-Ala-Val-Cys-NH2; also: oxorhenium(V) N3S1 chelate (Re(V)=O)) [11-13] | high negative percent inhibition

Same assay, conditions: inhibition of 0.01 nM 125I-Bombesin binding; rat brain membranes; test concentration not given

Substance | % Inhibition
Ac-Ala-Gln-Cys-Arg-Leu-Gly-Asn-Gln-Trp-Ala-Val-Gly-His-Leu-Nle-NH2 (Ac-AQCRLGNQWAVGHL[Nle]-NH2; also: oxorhenium(V) N3S1 tetradentate complex via Cys) [6-13] | 99%
Ac-Ala-Gln-Cys-Leu-Gly-Asn-Gln-Trp-Ala-Val-Gly-His-Leu-Nle-NH2 (Ac-AQCLGNQWAVGHL[Nle]-NH2; also: oxorhenium(V) N3S1 tetradentate complex via Cys) [7-12] | 96%
Ala-Val-Cys-His-Leu-Leu-NH2 (AVCHLL-NH2; not fully specified (bridges); printed as Ala-Val-Cys-His-Leu-Leu-NH2; also: oxorhenium(V) N3S1 chelate (Re(V)=O)) [11-6] | 6%
Ala-Val-Cys-His-Leu-NH2 (AVCHL-NH2; not fully specified (bridges); printed as Ala-Val-Cys-His-Leu-NH2; also: oxorhenium(V) N3S1 chelate (Re(V)=O)) [11-9] | 7%
Ala-Val-Cys-His-NH2 (AVCH-NH2; not fully specified (bridges); printed as Ala-Val-Cys-His-NH2; also: oxorhenium(V) N3S1 chelate (Re(V)=O)) [11-12] | 5%
Ala-Val-Cys-NH2 (not fully specified (bridges); printed as Ala-Val-Cys-NH2; also: oxorhenium(V) N3S1 chelate (Re(V)=O)) [11-15] | 4%
D-Phe-Gln-Cys-Ala-Val-Gly-His-Leu-Leu-NH2 ([dF]QCAVGHLL-NH2; also: oxorhenium(V) N3S1 tetradentate complex via Cys) [9-7] | 19%
D-Phe-Gln-Cys-Trp-Ala-Val-Gly-His-Leu-Leu-NH2 ([dF]QCWAVGHLL-NH2; also: oxorhenium(V) N3S1 tetradentate complex via Cys) [8-8] | 62%
D-Phe-Gln-D-Trp-Ala-Val-Cys-His-Leu-Leu-NH2 ([dF]Q[dW]AVCHLL-NH2; numbers in words are those of the source; also: oxorhenium(V) N3S1 tetradentate complex via Cys) [10-5] | 6%
D-Phe-Gln-Trp-Ala-Cys-Gly-His-Leu-Leu-NH2 ([dF]QWACGHLL-NH2; also: oxorhenium(V) N3S1 tetradentate complex via Cys) [9-5] | 17%
D-Phe-Gln-Trp-Ala-Cys-Val-Gly-His-Leu-Leu-NH2 ([dF]QWACVGHLL-NH2; also: oxorhenium(V) N3S1 chelate via Cys (Re(V)=O)) [8-6] | 35%
D-Phe-Gln-Trp-Ala-Cys-Val-His-Leu-Leu-NH2 ([dF]QWACVHLL-NH2; also: rhenium complex (oxorhenium(V) N3S1 chelate via Cys)) [12-2] | 3%
D-Phe-Gln-Trp-Ala-Val-Cys-D-His-Leu-Leu-NH2 ([dF]QWAVC[dH′]LL-NH2; also: oxorhenium(V) N3S1 chelate via Cys (Re(V)=O)) [10-1] | 10%
D-Phe-Gln-Trp-Ala-Val-Cys-Gly-His-Leu-Leu-NH2 ([dF]QWAVCGHLL-NH2; also: oxorhenium(V) N3S1 chelate via Cys (Re(V)=O)) [8-5] | 70%
D-Phe-Gln-Trp-Ala-Val-Cys-His-Leu-Leu-NH2 ([dF]QWAVCHLL-NH2; also: Re metal complex (oxorhenium(V) N3S1 chelate via Cys)) [9-4] | 75%
D-Phe-Gln-Trp-Ala-Val-Cys-His-Leu-NH2 ([dF]QWAVCHL-NH2; also: oxorhenium(V) N3S1 chelate via Cys (Re(V)=O)) [11-1] | 98%
D-Phe-Gln-Trp-Ala-Val-Cys-His-NH2 ([dF]QWAVCH-NH2; also: oxorhenium(V) N3S1 chelate via Cys (Re(V)=O)) [11-2] | 25%
D-Phe-Gln-Trp-Ala-Val-Cys-NH2 ([dF]QWAVC-NH2; also: oxorhenium(V) N3S1 chelate via Cys (Re(V)=O)) [11-3] | −81%

Substance | % Inhibition
D-Phe-Gln-Trp-Ala-Val-D-Cys-His-Leu-Leu-NH2 (chain 1 [dF]QWAV; chain 2 [dC]HLL-NH2; not fully specified (bridges); also: chain 2 continues chain 1 in one peptide (Val-D-Cys bond), Re-peptide (rhenium complex)) [10-2] | 64%
D-Phe-Gln-Trp-Ala-Val-Gly-Cys-His-Leu-Leu-NH2 ([dF]QWAVGCHLL-NH2; also: oxorhenium(V) N3S1 chelate via Cys (Re(V)=O)) [8-4] | 59%
D-Phe-Gln-Trp-Ala-Val-Gly-Cys-Leu-Leu-NH2 ([dF]QWAVGCLL-NH2; also: oxorhenium(V) N3S1 chelate via Cys (Re(V)=O)) [9-3] | 70%
D-Phe-Gln-Trp-Ala-Val-Gly-His-Cys-Leu-Leu-NH2 ([dF]QWAVGHCLL-NH2; also: rhenium complex (oxorhenium(V) N3S1 chelate via Cys)) [8-3] | 49%
D-Phe-Gln-Trp-Ala-Val-Gly-His-Cys-Leu-NH2 ([dF]QWAVGHCL-NH2; also: rhenium complex (oxorhenium(V) N3S1 chelate via Cys)) [9-2] | 35%
D-Phe-Gln-Trp-Ala-Val-Gly-His-Leu-Cys-Leu-NH2 ([dF]QWAVGHLCL-NH2; also: rhenium complex (oxorhenium(V) N3S1 chelate via Cys)) [8-2] | 75%
D-Phe-Gln-Trp-Ala-Val-Gly-His-Leu-Cys-NH2 ([dF]QWAVGHLC-NH2; also: rhenium complex (oxorhenium(V) N3S1 chelate via Cys)) [9-1] | 86%
D-Phe-Gln-Trp-Ala-Val-Gly-His-Leu-Leu-Cys-NH2 ([dF]QWAVGHLLC-NH2; also: rhenium complex (oxorhenium(V) N3S1 chelate via Cys)) [8-1] | 39%
D-Phe-Gln-Trp-Cys-Ala-Val-Gly-His-Leu-Leu-NH2 ([dF]QWCAVGHLL-NH2; also: rhenium complex (oxorhenium(V) N3S1 chelate via Cys)) [8-7] | 8%
D-Phe-Gln-Trp-Cys-Val-Gly-His-Leu-Leu-NH2 ([dF]QWCVGHLL-NH2; also: oxorhenium(V) N3S1 chelate complex (Re=O)) [9-6] | 43%
D-Phe-Gln-Trp-Cys-Val-His-Leu-Leu-NH2 ([dF]QWCVHLL-NH2; not fully specified (bridges); printed as D-Phe-Gln-Trp-Cys-Val-His-Leu-Leu-NH2; also: oxorhenium(V) N3S1 chelate complex (Re=O)) [12-6] | 10%
D-Phe-Gln-Trp-D-Ala-Val-Cys-His-Leu-Leu-NH2 ([dF]QW[dA]VCHLL-NH2; numbers in words are those of the source; also: oxorhenium(V) N3S1 chelate complex (Re=O)) [10-4] | 2%
D-Phe-Gln-Trp-Val-Cys-Gly-His-Leu-Leu-NH2 ([dF]QWVCGHLL-NH2; also: oxorhenium(V) N3S1 chelate complex (Re=O)) [12-1] | 2%
D-Phe-Gln-Trp-Val-Cys-His-Leu-Leu-NH2 ([dF]QWVCHLL-NH2; also: oxorhenium(V) N3S1 chelate complex (Re=O)) [12-4] | 5%
D-Phe-Gln-Trp-Val-Cys-Val-His-Leu-Leu-NH2 ([dF]QWVCVHLL-NH2; not fully specified (bridges); printed as D-Phe-Gln-Trp-Val-Cys-Val-His-Leu-Leu-NH2; also: oxorhenium(V) N3S1 chelate complex (Re=O)) [12-3] | 14%
Gln-Trp-Ala-Val-Cys-His-Leu-Leu-NH2 [11-4] (QWAVCHLL-NH2; not fully specified (bridges); printed as Gln-Trp-Ala-Val-Cys-His-Leu-Leu-NH2; also: oxorhenium(V) N3S1 chelate (Re(V)=O)) | 25%
Gln-Trp-Ala-Val-Cys-His-Leu-Leu-NH2 [11-7] (QWAVCHLL-NH2; not fully specified (bridges); printed as Gln-Trp-Ala-Val-Cys-His-Leu-Leu-NH2; also: oxorhenium(V) N3S1 chelate (Re(V)=O)) | 5%
Gln-Trp-Ala-Val-Cys-NH2 (QWAVC-NH2; not fully specified (bridges); printed as Gln-Trp-Ala-Val-Cys-NH2; also: oxorhenium(V) N3S1 chelate (Re(V)=O)) [11-13] | −50%
